According to patent EP0250264A1, “Irreversible dopamine-Beta-hydroxylase inhibitors” (SMITHKLINE BECKMAN CORPORATION, priority 1986, dated 1987):

Assays:
[1] = test system: Spontaneously hypertensive rats; test: Mean arterial blood pressure in spontaneously hypertensive rats, monitored with indwelling tail artery cannulae; format: in vivo; details: 100 mg/kg intraperitoneally; for blood pressure reduction remaining at 260 minutes: 260 minutes after administration, b38 compares to vehicle-treated controls
Description: Spontaneously hypertensive rats were dosed with a suspension or solution of ß-ethynylbenzeneethanamine- methane sulfonate at a dose of 100 mg/kg intraperitoneally, and mean arterial blood pressure was monitored for 260 minutes using indwelling cannulae positioned in the tail arteries.
Blood pressure also was monitored in spontaneously hypertensive rats given 100 mg/kg intraperitoneally B-ethynyl-3-hydroxybenzeneethanamine hydrochloride.

[2] = molecular target: T1, DBH (Homo sapiens, UniProt P09172); test: DBH inhibition assay, conversion of tyramine to octopamine (enzyme inhibition kinetic study); format: biochemical; details: enzyme incubated for up to 50 minutes with 10, 20, 40, or 80 µM concentrations
T1 sequence (P09172 1-617): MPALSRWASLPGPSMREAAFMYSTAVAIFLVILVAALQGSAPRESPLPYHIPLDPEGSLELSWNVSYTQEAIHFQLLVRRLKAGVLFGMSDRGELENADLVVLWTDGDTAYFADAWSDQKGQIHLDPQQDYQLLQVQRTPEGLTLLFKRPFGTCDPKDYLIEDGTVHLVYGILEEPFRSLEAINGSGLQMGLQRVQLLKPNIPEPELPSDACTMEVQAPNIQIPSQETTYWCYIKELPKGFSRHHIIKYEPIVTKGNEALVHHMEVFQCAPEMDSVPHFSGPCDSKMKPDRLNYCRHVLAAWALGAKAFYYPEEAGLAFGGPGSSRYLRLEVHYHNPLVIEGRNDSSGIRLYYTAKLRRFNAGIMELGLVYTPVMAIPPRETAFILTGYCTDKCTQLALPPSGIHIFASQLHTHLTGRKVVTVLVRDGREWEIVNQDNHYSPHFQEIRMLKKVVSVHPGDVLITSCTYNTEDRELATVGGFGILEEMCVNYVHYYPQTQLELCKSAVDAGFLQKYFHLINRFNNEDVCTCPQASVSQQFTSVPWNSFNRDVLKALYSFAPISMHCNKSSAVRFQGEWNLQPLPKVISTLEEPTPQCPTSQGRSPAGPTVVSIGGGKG
Description: DBH activity was assayed by a standard procedure for measuring the conversion of tyramine to octopamine in the presence of DBH. J.J. Pisano, et al., Biochim. Biophy. Acta, 43, 566-68 (1960). Octopamine was assayed following sodium periodate oxidation to p-hydroxybenzaldehyde by measuring spectrophotometric absorbance at 330 nm.
To measure DBH inhibition, the enzyme was incubated for up to 50 minutes with 10, 20, 40, or 80 µM concentrations of ß-ethynyl-4-hydroxybenzeneethanamine.

[3] = molecular target: T1, DBH; details: cited from earlier work

## C#CC(CN)c1cccc(O)c1 (stereo not shown) [ß-Ethynyl-3-Hydrpxybenzeneethanamine]
[1]
  blood pressure reduction remaining at 260 minutes: approximately ten
[1]; forty minutes following compound administration
  blood pressure reductions: thirty

## C#CC(CN)c1ccc(O)cc1.Cl (stereo not shown) [ß-ethynyl-4-hydroxybenzeneethanamine, ß-Ethynyl-4-Hydroxybenzeneethanamine Hydrochloride]
[2]
  DBH inhibition: concentration- dependent DBH inhibition
  enzyme inhibition, dependence on time: time-dependent

## C#CC(CN)c1ccccc1.CS(=O)(=O)O (stereo not shown) [ß-ethynylbenzeneethanamine- methane sulfonate]
[1]
  blood pressure reduction remaining at 260 minutes: approximately twenty
[1]; twenty to forty minutes following administration
  reductions in blood pressure: approximately twenty

## phenylpicolinic acid
[3]
  inhibitory activity relative to fusaric acid: twice the inhibitory activity of fusaric acid
